In the kinase profiling compilation of Christmann-Franck et al. (2016):

Tests used:
Assay in all cases: radiometric filter-binding kinase assay, Kinase HotSpot
Conditions in all cases: compound 0.5 µM; ATP 10 µM
[1] = target: CAMK1G (human) (UniProt Q96NX5)
[2] = target: MAPK8 (human) (UniProt P45983)
[3] = target: HIPK3 (human) (UniProt Q9H422)
[4] = target: YES1 (human) (UniProt P07947)
[5] = target: MAP3K2 (human) (UniProt Q9Y2U5)
[6] = target: CSNK2A2 (human) (UniProt P19784)
[7] = target: DMPK (human) (UniProt Q09013)
[8] = target: MAP3K8 (human) (UniProt P41279)
[9] = target: PKN2 (human) (UniProt Q16513)
[10] = target: MUSK (human) (UniProt O15146)
[11] = target: MELK (human) (UniProt Q14680)
Sequence of MELK (human) (Q14680 whole entry, looked up): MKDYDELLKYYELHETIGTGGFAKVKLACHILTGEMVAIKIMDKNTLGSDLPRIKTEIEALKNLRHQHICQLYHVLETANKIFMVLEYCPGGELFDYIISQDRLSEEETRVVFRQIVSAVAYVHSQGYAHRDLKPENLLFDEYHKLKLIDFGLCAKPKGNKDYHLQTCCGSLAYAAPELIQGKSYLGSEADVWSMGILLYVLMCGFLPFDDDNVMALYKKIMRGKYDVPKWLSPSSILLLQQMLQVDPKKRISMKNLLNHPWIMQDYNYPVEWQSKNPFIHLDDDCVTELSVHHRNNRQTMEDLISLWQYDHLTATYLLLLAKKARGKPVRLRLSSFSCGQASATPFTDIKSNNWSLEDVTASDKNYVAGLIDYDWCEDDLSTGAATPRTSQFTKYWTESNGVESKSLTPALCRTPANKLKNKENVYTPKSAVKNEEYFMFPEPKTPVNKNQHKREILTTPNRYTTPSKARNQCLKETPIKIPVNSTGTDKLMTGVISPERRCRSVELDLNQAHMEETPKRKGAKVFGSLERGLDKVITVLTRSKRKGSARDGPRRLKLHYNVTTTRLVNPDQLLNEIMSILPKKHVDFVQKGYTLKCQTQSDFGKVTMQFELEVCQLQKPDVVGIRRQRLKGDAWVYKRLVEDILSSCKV

[12] = target: CAMKK2 (human) (UniProt Q96RR4)
[13] = target: MAP3K7 TAB1 (human) (UniProt O43318+Q15750)
[14] = target: EPHA8 (human) (UniProt P29322)
[15] = target: CDK2 CCNA2 (human) (UniProt P24941+P20248)
[16] = target: IRAK4 (human) (UniProt Q9NWZ3)
Sequence of IRAK4 (human) (Q9NWZ3 whole entry, looked up): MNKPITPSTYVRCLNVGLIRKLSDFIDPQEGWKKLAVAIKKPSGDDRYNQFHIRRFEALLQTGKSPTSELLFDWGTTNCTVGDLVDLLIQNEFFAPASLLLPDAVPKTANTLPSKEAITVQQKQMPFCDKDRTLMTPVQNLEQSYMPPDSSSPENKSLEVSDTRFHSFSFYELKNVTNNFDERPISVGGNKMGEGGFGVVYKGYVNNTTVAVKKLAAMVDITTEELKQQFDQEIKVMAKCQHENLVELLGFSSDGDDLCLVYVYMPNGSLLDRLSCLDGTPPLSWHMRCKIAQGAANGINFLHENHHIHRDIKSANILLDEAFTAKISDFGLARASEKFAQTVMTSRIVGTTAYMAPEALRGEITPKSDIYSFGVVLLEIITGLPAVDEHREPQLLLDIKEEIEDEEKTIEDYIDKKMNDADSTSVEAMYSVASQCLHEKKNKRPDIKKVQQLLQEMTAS

[17] = target: EPHB1 (human) (UniProt P54762)
[18] = target: PKN1 (human) (UniProt Q16512)
[19] = target: AURKB (human) (UniProt Q96GD4)
[20] = target: CSNK1G3 (human) (UniProt Q9Y6M4)
[21] = target: MARK3 (human) (UniProt P27448)
Sequence of MARK3 (human) (P27448 whole entry, looked up): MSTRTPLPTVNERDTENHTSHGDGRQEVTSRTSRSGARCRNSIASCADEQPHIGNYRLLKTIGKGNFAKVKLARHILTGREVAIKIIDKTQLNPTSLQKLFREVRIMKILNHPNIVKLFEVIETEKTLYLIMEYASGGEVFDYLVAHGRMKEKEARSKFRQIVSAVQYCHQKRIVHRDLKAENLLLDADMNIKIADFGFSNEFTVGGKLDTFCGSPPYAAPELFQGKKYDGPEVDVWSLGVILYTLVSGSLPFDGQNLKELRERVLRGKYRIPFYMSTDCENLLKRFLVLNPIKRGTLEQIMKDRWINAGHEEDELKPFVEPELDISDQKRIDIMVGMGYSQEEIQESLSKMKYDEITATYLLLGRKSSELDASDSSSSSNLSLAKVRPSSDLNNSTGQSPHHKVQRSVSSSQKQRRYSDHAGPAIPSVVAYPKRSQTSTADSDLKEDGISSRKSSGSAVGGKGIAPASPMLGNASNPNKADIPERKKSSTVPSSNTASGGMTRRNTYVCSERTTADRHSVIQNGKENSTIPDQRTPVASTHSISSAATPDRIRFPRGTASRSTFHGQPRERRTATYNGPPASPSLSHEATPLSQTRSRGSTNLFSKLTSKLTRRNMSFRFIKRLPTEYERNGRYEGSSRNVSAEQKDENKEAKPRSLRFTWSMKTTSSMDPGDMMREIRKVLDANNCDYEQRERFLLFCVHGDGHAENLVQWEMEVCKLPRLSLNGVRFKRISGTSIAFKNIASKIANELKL

[22] = target: CSNK1D (human) (UniProt P48730)
[23] = target: JAK2 JH1 JH2 (human) (UniProt O60674)
[24] = target: EGFR (human) (UniProt P00533)
[25] = target: ALK (human) (UniProt Q9UM73)
[26] = target: SLK (human) (UniProt Q9H2G2)
[27] = target: STK16 (human) (UniProt O75716)
Sequence of STK16 (human) (O75716 whole entry, looked up): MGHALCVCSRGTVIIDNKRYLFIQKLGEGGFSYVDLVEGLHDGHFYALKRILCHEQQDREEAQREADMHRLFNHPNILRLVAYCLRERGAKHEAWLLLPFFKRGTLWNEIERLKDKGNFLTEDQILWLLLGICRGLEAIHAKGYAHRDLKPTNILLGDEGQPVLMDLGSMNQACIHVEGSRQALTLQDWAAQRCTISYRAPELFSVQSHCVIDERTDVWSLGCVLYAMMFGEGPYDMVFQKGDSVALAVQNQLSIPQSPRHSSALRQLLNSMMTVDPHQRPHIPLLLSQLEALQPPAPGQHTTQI

[28] = target: GRK7 (human) (UniProt Q8WTQ7)
[29] = target: LCK (human) (UniProt P06239)
Sequence of LCK (human) (P06239 whole entry, looked up): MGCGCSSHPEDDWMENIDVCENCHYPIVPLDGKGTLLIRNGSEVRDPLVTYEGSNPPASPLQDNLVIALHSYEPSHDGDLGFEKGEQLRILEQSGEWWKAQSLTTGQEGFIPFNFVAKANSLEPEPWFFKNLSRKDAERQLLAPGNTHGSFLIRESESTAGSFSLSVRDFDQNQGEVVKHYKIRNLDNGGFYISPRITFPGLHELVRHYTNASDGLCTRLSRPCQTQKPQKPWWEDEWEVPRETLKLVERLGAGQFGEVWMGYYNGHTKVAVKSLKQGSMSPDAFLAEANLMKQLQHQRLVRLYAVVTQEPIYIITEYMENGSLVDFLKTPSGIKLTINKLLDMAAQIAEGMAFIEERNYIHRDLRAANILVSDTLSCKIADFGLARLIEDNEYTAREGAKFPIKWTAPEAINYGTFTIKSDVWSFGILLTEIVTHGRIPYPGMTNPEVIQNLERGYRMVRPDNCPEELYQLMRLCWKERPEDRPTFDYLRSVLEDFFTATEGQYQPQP

[30] = target: ABL1 (human) (UniProt P00519)
[31] = target: FLT1 (human) (UniProt P17948)
[32] = target: PDGFRB (human) (UniProt P09619)
Sequence of PDGFRB (human) (P09619 whole entry, looked up): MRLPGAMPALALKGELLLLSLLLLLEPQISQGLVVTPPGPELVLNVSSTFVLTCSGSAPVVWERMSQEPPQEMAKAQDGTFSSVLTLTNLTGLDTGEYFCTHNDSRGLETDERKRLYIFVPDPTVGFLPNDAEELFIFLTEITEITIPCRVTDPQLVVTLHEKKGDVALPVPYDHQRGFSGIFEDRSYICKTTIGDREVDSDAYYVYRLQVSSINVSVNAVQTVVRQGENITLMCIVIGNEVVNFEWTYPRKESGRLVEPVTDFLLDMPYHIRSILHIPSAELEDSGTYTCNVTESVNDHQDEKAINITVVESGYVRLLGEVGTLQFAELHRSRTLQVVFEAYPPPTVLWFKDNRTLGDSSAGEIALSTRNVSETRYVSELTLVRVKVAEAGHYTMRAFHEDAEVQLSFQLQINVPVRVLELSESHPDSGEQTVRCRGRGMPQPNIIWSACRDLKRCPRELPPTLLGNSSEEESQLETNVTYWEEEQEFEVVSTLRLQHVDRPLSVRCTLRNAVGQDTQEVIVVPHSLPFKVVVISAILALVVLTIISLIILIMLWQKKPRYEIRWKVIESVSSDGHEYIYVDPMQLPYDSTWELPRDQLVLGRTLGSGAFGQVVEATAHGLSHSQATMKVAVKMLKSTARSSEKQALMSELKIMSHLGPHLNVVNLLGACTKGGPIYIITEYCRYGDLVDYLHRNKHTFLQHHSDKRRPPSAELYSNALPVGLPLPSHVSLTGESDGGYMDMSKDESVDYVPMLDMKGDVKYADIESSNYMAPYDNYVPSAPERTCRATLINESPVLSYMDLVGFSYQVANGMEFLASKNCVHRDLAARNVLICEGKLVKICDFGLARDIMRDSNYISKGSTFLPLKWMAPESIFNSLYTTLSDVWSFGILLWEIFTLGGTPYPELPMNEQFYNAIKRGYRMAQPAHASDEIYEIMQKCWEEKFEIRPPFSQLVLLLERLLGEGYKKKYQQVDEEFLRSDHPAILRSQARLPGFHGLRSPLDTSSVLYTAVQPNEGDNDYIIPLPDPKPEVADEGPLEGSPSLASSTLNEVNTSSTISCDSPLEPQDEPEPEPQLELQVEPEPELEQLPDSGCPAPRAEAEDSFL

[33] = target: MATK (human) (UniProt P42679)
Sequence of MATK (human) (P42679 whole entry, looked up): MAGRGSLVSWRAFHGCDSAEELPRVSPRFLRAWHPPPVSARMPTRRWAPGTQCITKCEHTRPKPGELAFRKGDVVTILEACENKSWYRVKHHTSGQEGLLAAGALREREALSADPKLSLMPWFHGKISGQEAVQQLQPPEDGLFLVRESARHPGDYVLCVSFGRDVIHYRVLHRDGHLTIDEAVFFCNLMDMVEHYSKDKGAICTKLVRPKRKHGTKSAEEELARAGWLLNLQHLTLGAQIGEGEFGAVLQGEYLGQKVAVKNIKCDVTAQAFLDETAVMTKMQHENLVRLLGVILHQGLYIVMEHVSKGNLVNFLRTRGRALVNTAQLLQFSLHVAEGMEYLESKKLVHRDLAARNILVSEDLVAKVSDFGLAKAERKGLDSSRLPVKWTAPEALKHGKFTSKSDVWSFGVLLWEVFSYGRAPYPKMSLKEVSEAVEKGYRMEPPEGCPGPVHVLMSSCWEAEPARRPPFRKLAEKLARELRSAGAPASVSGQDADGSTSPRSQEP

Sequence of MAP3K2 (human) (Q9Y2U5 whole entry, looked up): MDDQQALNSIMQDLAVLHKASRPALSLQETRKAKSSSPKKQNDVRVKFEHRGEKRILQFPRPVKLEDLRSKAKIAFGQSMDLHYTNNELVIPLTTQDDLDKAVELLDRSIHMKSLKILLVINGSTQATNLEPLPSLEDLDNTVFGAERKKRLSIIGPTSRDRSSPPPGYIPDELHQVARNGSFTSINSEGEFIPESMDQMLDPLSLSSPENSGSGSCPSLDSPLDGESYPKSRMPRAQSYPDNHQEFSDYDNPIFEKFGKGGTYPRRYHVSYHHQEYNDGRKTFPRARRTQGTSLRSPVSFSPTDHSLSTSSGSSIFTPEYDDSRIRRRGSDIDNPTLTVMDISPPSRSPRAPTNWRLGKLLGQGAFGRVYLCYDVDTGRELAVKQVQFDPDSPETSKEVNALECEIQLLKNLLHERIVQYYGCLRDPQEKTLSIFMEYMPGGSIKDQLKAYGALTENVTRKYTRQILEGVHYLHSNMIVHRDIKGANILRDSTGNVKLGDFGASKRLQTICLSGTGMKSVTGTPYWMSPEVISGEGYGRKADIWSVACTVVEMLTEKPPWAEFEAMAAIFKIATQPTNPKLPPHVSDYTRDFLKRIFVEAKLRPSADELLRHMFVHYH

Row | Structure (SMILES) | residual activity [2] [%] | residual activity [3] [%] | residual activity [4] [%] | residual activity [5] [%] | residual activity [6] [%] | residual activity [7] [%] | residual activity [8] [%] | residual activity [9] [%] | residual activity [10] [%] | residual activity [11] [%] | residual activity [12] [%] | residual activity [13] [%] | residual activity [14] [%] | residual activity [15] [%] | residual activity [16] [%] | residual activity [17] [%] | residual activity [18] [%] | residual activity [19] [%] | residual activity [20] [%] | residual activity [21] [%] | further results
1 | O=c1cc(-c2cccc3c2Sc2ccccc2S3)oc(N2CCOCC2)c1 | 84 | 105 | 89.4 | 92.7 | 96 | 94.8 | 103 | 72.9 | 89.1 | 99.9 | 133 | 84.5 | 110 | 101 | 160 | 110 | 94.4 | 95.8 | 87.9 | 106 | residual activity [1]: 99.4%; residual activity [22]: 106%; residual activity [23]: 105%; residual activity [24]: 107%; residual activity [25]: 96.2%; residual activity [26]: 93.5%; residual activity [27]: 95.5%; residual activity [28]: 99.2%; residual activity [29]: 98.1%; residual activity [30]: 99.5%; residual activity [31]: 90.8%; residual activity [32]: 102%; residual activity [33]: 102%
2 | O=C(NC(NC(=S)Nc1ccc(F)c([N+](=O)[O-])c1)C(Cl)(Cl)Cl)C(c1ccccc1)c1ccccc1 (stereo not drawn) | 82.1 | 105 | 94.6 | 96.8 | 97 | 85.5 | 105 | 88.1 | 106 | 102 | 126 | 89.7 | 104 | 102 | 191 | 109 | 92.8 | 95.3 | 87.7 | 104 | residual activity [1]: 102%; residual activity [22]: 105%; residual activity [23]: 99.9%; residual activity [24]: 108%; residual activity [25]: 110%; residual activity [26]: 95.2%; residual activity [27]: 99.4%; residual activity [28]: 101%; residual activity [29]: 91.8%; residual activity [30]: 101%; residual activity [31]: 97.2%; residual activity [32]: 105%; residual activity [33]: 96.5%
3 | O=C1Nc2ccccc2/C1=C\c1c(Cl)[nH]c2ccccc12 | 93.5 | 100 | 93.9 | 94 | 94.3 | 101 | 94.3 | 96.3 | 96.4 | 85.7 | 97.8 | 99.2 | 103 | 91.5 | 102 | 90.8 | 94.6 | 97.9 | 92.8 | 104 | residual activity [22]: 90.5%; residual activity [23]: 103%; residual activity [24]: 97.5%; residual activity [25]: 97.9%; residual activity [26]: 93.5%; residual activity [27]: 102%; residual activity [28]: 106%; residual activity [29]: 95.5%; residual activity [30]: 95.2%; residual activity [31]: 88.6%; residual activity [32]: 102%; residual activity [33]: 89.5%
